Reference: PubChem BioAssay AID330 (DTP/NCI, 2004)
Values joined by “and” are separate entries in the source; they are usually repeats but may differ in a detail not shown here. Identical values can stand only once. Toxic doses and inconclusive results are not listed. The calls were made as follows: active = survival T/C of 150% or more; inactive = T/C below 125% in these data.

Tested on: P388 leukemia ip, CD2F1 mice, survival T/C
Test: NCI In Vivo Anticancer Drug Screen. Data for tumor model P388 Leukemia (intraperitoneal) in CD2F1 (CDF1) mice
Settings: endpoint: median survival time, higher = longer survival
Procedure, shortened: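 Mice carrying the transplanted tumor received test compound or vehicle. Survival was recorded in each group, and the value is the treated-group measurement divided by that of the vehicle-treated control group.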

[1] = dose: 6.25 mg/kg/injection, schedule: Q01DX009 (ip), vehicle: saline with Tween-80
[2] = dose: 12.5 mg/kg/injection, schedule: Q01DX009 (ip), vehicle: saline with Tween-80
[3] = dose: 25.0 mg/kg/injection, schedule: Q01DX009 (ip), vehicle: saline with Tween-80
[4] = dose: 50.0 mg/kg/injection, schedule: Q01DX009 (ip), vehicle: saline with Tween-80
[5] = dose: 100.0 mg/kg/injection, schedule: Q01DX009 (ip), vehicle: saline with Tween-80
[6] = dose: 60.0 mg/kg/injection, schedule: Q01DX005 (ip), vehicle: saline with Tween-80
[7] = dose: 120.0 mg/kg/injection, schedule: Q01DX005 (ip), vehicle: saline with Tween-80
[8] = dose: 240.0 mg/kg/injection, schedule: Q01DX005 (ip), vehicle: saline with Tween-80
[9] = dose: 50.0 mg/kg/injection, schedule: Q01DX009 (ip), vehicle: saline
[10] = dose: 100.0 mg/kg/injection, schedule: Q01DX009 (ip), vehicle: saline
[11] = dose: 200.0 mg/kg/injection, schedule: Q01DX009 (ip), vehicle: saline
[12] = dose: 400.0 mg/kg/injection, schedule: Q01DX009 (ip), vehicle: saline
[13] = dose: 100.0 mg/kg/injection, schedule: Q04DX003 (ip), vehicle: saline with Tween-80
[14] = dose: 200.0 mg/kg/injection, schedule: Q04DX003 (ip), vehicle: saline with Tween-80
[15] = dose: 400.0 mg/kg/injection, schedule: Q04DX003 (ip), vehicle: saline with Tween-80

Measured: T/C

CSCCC(NCc1c(O)ccc2c(C)cc(=O)oc12)C(=O)O (stereo unspecified)
inactive: dose: 60.0 mg/kg/injection, schedule: Q01DX005 (ip), vehicle: Klucel (hydroxypropylcellulose) (HPC) 93 % of control | dose: 120.0 mg/kg/injection, schedule: Q01DX005 (ip), vehicle: Klucel (hydroxypropylcellulose) (HPC) 98 % of control | dose: 240.0 mg/kg/injection, schedule: Q01DX005 (ip), vehicle: Klucel (hydroxypropylcellulose) (HPC) 99 % of control

CN(C)C(=S)SCN1CCCCC1
inactive: [1] 100 % of control | [2] 101 % of control | [3] 100 % of control | [4] 95 % of control

C/C=C1/CN2CCC34c5ccccc5N(C)C23C(OC(C)=O)CC1C4(CO)C(=O)OC (stereo unspecified)
inactive: dose: 2.25 mg/kg/injection, schedule: Q01DX005 (ip), vehicle: saline + Tween-80 + alcohol 120 % of control | dose: 4.5 mg/kg/injection, schedule: Q01DX005 (ip), vehicle: saline + Tween-80 + alcohol 103 % of control | dose: 9.0 mg/kg/injection, schedule: Q01DX005 (ip), vehicle: saline + Tween-80 + alcohol 106 % of control | dose: 18.0 mg/kg/injection, schedule: Q01DX005 (ip), vehicle: saline + Tween-80 + alcohol 104 % of control

Clc1ccc(C2NCCNCc3ccccc32)cc1 (stereo unspecified)
inactive: [3] 101 % of control | [4] 107 % of control | [5] 98 % of control and 115 % of control

O=C(Nc1cc(Cl)cc(Cl)c1)N1CCOCC1
inactive: [6] 92 % of control | [7] 92 % of control | [8] 92 % of control

[Cl][Co][Cl].[NH-]CC[N-]CC[N-]CC[NH-]
inactive: dose: 12.5 mg/kg/injection, schedule: Q01DX005 (ip), vehicle: saline 100 % of control | dose: 25.0 mg/kg/injection, schedule: Q01DX005 (ip), vehicle: saline 104 % of control | dose: 50.0 mg/kg/injection, schedule: Q01DX005 (ip), vehicle: saline 114 % of control and 107 % of control and 113 % of control | [9] 102 % of control | dose: 100.0 mg/kg/injection, schedule: Q01DX005 (ip), vehicle: saline 109 % of control | [10] 100 % of control

CN(C)C1C(O)C2Oc3c(cc(O)c4c3C(=O)c3cc5c(c(O)c3C4=O)C(N=[N+]=N)CC(C)(O)C5)C(C)(O2)C1O (stereo unspecified)
inactive: dose: 0.31 mg/kg/injection, schedule: Q01DX009 (ip), vehicle: other 107 % of control | dose: 0.62 mg/kg/injection, schedule: Q01DX009 (ip), vehicle: other 107 % of control | dose: 1.25 mg/kg/injection, schedule: Q01DX009 (ip), vehicle: other 108 % of control | dose: 10.0 mg/kg/injection, schedule: Q01DX009 (ip), vehicle: other 120 % of control

CCC1(O)C(=O)OCc2c1cc1n(c2=O)Cc2ccccc2-1 (stereo unspecified)
inactive: dose: 100.0 mg/kg/injection, schedule: Q01DX001 (ip), vehicle: saline with Tween-80 96 % of control | dose: 200.0 mg/kg/injection, schedule: Q01DX001 (ip), vehicle: saline with Tween-80 90 % of control | dose: 400.0 mg/kg/injection, schedule: Q01DX001 (ip), vehicle: saline with Tween-80 92 % of control

O=C(CN1CCCCC1)Nc1ccc2c(c1)C(=O)c1ccc(NC(=O)CN3CCCCC3)cc1C2=O
inactive: dose: 50.0 mg/kg/injection, schedule: Q01DX005 (ip), vehicle: Klucel (hydroxypropylcellulose) (HPC) 90 % of control and 97 % of control | dose: 50.0 mg/kg/injection, schedule: Q01DX005 (ip), vehicle: acid diluted with saline 100 % of control | dose: 100.0 mg/kg/injection, schedule: Q01DX005 (ip), vehicle: Klucel (hydroxypropylcellulose) (HPC) 90 % of control and 94 % of control | dose: 100.0 mg/kg/injection, schedule: Q01DX005 (ip), vehicle: acid diluted with saline 106 % of control | dose: 200.0 mg/kg/injection, schedule: Q01DX005 (ip), vehicle: Klucel (hydroxypropylcellulose) (HPC) 90 % of control and 95 % of control | dose: 200.0 mg/kg/injection, schedule: Q01DX005 (ip), vehicle: acid diluted with saline 108 % of control

NC(N)=O
inactive: dose: 12.5 mg/kg/injection, schedule: Q01DX009 (ip), vehicle: saline 100 % of control | dose: 25.0 mg/kg/injection, schedule: Q01DX009 (ip), vehicle: saline 105 % of control | [9] 105 % of control | [10] 102 % of control | [11] 100 % of control | [12] 98 % of control

COC1C(OC(=O)c2ccc(C)[nH]2)C(O)C(Oc2ccc3c(O)c(NC(=O)c4c[nH]c(C(=O)Nc5c(O)c6ccc(OC7OC(C)(C)C(OC)C(OC(=O)c8ccc(C)[nH]8)C7O)c(C)c6oc5=O)c4C)c(=O)oc3c2C)OC1(C)C (stereo unspecified)
inactive: [1] 110 % of control and 97 % of control | [2] 100 % of control and 122 % of control | [3] 96 % of control | [4] 103 % of control | [9] 118 % of control | [5] 90 % of control | [10] 113 % of control | [13] 109 % of control | dose: 200.0 mg/kg/injection, schedule: Q01DX009 (ip), vehicle: saline with Tween-80 109 % of control | [11] 102 % of control | [14] 100 % of control | dose: 400.0 mg/kg/injection, schedule: Q01DX009 (ip), vehicle: saline with Tween-80 100 % of control | [12] 117 % of control | [15] 109 % of control

O=C(N/N=C/c1ccccc1O)C(O)(c1ccccc1)c1ccccc1
inactive: [13] 107 % of control | [14] 101 % of control | [15] 92 % of control

CC1CCC2CC(C3CCCC[N-]3)[N-]C(N)C2C1.CC1CCC2CC(C3CCCC[N-]3)[N-]C(N)C2C1.O=[N+]([O-])O.[Cu+] (stereo unspecified)
inactive: dose: 12.5 mg/kg/injection, schedule: Q04DX002 (ip), vehicle: saline 97 % of control | dose: 12.5 mg/kg/injection, schedule: Q04DX002 (ip), vehicle: suspension in saline 100 % of control | dose: 25.0 mg/kg/injection, schedule: Q04DX002 (ip), vehicle: saline 104 % of control | dose: 25.0 mg/kg/injection, schedule: Q04DX002 (ip), vehicle: suspension in saline 104 % of control and 118 % of control | dose: 50.0 mg/kg/injection, schedule: Q04DX002 (ip), vehicle: suspension in saline 111 % of control and 114 % of control | dose: 100.0 mg/kg/injection, schedule: Q04DX002 (ip), vehicle: suspension in saline 103 % of control and 105 % of control and 120 % of control

Cc1cc(=O)oc2cc(OC(=O)N(C)C)ccc12
inactive: dose: 100.0 mg/kg/injection, schedule: Q04DX003 (ip), vehicle: saline 115 % of control | dose: 200.0 mg/kg/injection, schedule: Q04DX003 (ip), vehicle: saline 112 % of control | dose: 400.0 mg/kg/injection, schedule: Q04DX003 (ip), vehicle: saline 97 % of control

Oc1ccc(/C=N/NC(=S)Nc2ccccc2)nc1
inactive: dose: 265.0 mg/kg/injection, schedule: Q04DX003 (ip), vehicle: Klucel (hydroxypropylcellulose) (HPC) 114 % of control | dose: 400.0 mg/kg/injection, schedule: Q04DX003 (ip), vehicle: Klucel (hydroxypropylcellulose) (HPC) 123 % of control | dose: 600.0 mg/kg/injection, schedule: Q04DX003 (ip), vehicle: Klucel (hydroxypropylcellulose) (HPC) 117 % of control

S=C1NCC(c2ccc(Cl)cc2)[Se]1 (stereo unspecified)
inactive: dose: 50.0 mg/kg/injection, schedule: Q01DX009 (ip), vehicle: DMSO 100 % of control | dose: 100.0 mg/kg/injection, schedule: Q01DX009 (ip), vehicle: DMSO 100 % of control

C=C1CN(CCc2ccccc2)C(=S)S1
inactive: [6] 101 % of control | [7] 102 % of control | [8] 102 % of control
